Experimental data as given in article PMC6069857, “Effects of novel HDAC inhibitors on urothelial carcinoma cells” (Clinical Epigenetics, 2018).

How the values were obtained:
Format in all cases: cell-based, human
VM-CUB1 [1] = test: High-content analysis-based fluorescent live/dead assay; details: VMCub1, HCA, 72 h
Protocol: (§1) Live and dead cells were assayed by high-content analysis (HCA). […] After 72 h of treatment, cells were stained with a mixture of Hoechst 33342 (Sigma Aldrich, St. Louis, MO), calcein AM (Merck Millipore, Germany), and propidium iodide (Santa Cruz Biotechnology, Heidelberg) for cell nuclei, live and dead cells. The staining solution was replaced by PBS after 20 min. Images were acquired using ArrayScan XTI Live High Content Platform (Thermo Fisher Scientific Inc., USA) using excitation filters of 386, 485, and 560 nm for Hoechst 33342, calcein AM, and propidium iodide, respectively. The results were analyzed using HCS Studio Cellomics Scan (Thermo Fisher Scientific Inc., USA).

639-V [2] = test: as above; details: HCA, 72 h
Protocol: as §1

HBLAK [3] = test: as above; details: HCA, 72 h
Protocol: as §1

UM-UC-3 [4] = test: as above; details: UM-UC-3, HCA, 72 h
Protocol: as §1

[5] = tested on: UC cell lines (VM-CUB1, UM-UC-3, 639-V); test: MTT viability assay, UC cell lines taken together; details: MTT and HCA live/dead assays
Protocol: Further experiments were performed in VM-CUB1 and UM-UC-3 cells overexpressing HDAC4 (see below). Standard UCCs were obtained from the DSMZ (Braunschweig, Germany) and Dr. H.B. Grossmann HB (Houston, USA). For comparison, we investigated the spontaneously immortalized normal human bladder cell line HBLAK (provided by CELLnTEC, Bern, Switzerland) and the immortalized human embryonic kidney cell line HEK-293 (provided by Dr. V. Kolb-Bachofen, Duesseldorf, Germany). Cells were cultured and treated in DMEM GlutaMAX-I (Gibco, Darmstadt, Germany; UCCs and HEK-293) supplemented with 10% fetal calf serum (Biochrom, Berlin, Germany), except for HBLAK cultured in CnT-Prime Epithelial Culture Medium (CELLnTEC, Bern, Switzerland; HBLAK), at 37 °C and 5% CO2. […]
For the determination of cellular mean cytotoxic concentration (CC50), UCCs, non-malignant control cells, and HDAC4-overexpressing clones were seeded in a 96-well format and treated once with a range of defined concentrations of the HDAC inhibitors. After 72 h, viability was quantified by NAD(P)H-dependent 3-(4,5-dimethylthiazol-2-yl)-2,5-diphenyltetrazolium bromide dye reduction assay (MTT, Sigma Aldrich, St. Louis, MO). […] For time-dependent proliferation experiments, viability of untreated or inhibitor-treated cells was measured after 24, 48, and 72 h.

VM-CUB1 [6] = test: MTT viability assay (CC50)
Protocol: (§2) Further experiments were performed in VM-CUB1 and UM-UC-3 cells overexpressing HDAC4 (see below). Standard UCCs were obtained from the DSMZ (Braunschweig, Germany) and Dr. H.B. Grossmann HB (Houston, USA). For comparison, we investigated the spontaneously immortalized normal human bladder cell line HBLAK (provided by CELLnTEC, Bern, Switzerland) and the immortalized human embryonic kidney cell line HEK-293 (provided by Dr. V. Kolb-Bachofen, Duesseldorf, Germany). Cells were cultured and treated in DMEM GlutaMAX-I (Gibco, Darmstadt, Germany; UCCs and HEK-293) supplemented with 10% fetal calf serum (Biochrom, Berlin, Germany), except for HBLAK cultured in CnT-Prime Epithelial Culture Medium (CELLnTEC, Bern, Switzerland; HBLAK), at 37 °C and 5% CO2. STR (short tandem repeat) profiling via DNA fingerprint analysis was performed for all cell lines. Primary cultures of normal urothelial cells (UP) were established from healthy ureters removed during tumor nephrectomy and cultured as described. These cultures were used with informed consent of the patients and approval by the Ethics Committee of the Medical Faculty of the Heinrich-Heine-University, study number 1788. All inhibitors were dissolved in DMSO and stored as 10 mM stocks. […] The pan-HDACi inhibitor SAHA previously studied in detail was used for comparison. Solvent control cells were treated with equal amounts of DMSO.
(§3) For the determination of cellular mean cytotoxic concentration (CC50), UCCs, non-malignant control cells, and HDAC4-overexpressing clones were seeded in a 96-well format and treated once with a range of defined concentrations of the HDAC inhibitors. After 72 h, viability was quantified by NAD(P)H-dependent 3-(4,5-dimethylthiazol-2-yl)-2,5-diphenyltetrazolium bromide dye reduction assay (MTT, Sigma Aldrich, St. Louis, MO). CC50 values were estimated from three independent experiments by non-linear regression analysis (four-parameter logistic equation) using Prism 4.0 (Graph Pad) or Origin 8.0 (Origin Lab, Northhampton, GB). For time-dependent proliferation experiments, viability of untreated or inhibitor-treated cells was measured after 24, 48, and 72 h.

639-V [7] = test: MTT viability assay (CC50)
Protocol: as §2, §3

HBLAK [8] = test: MTT viability assay (CC50); details: 72 h of incubation
Protocol: as §2, §3

UM-UC-3 [9] = test: MTT viability assay (CC50); details: UM-UC-3, MTT
Protocol: as §2, §3

UCCs = test: Western blot of acetylated α-tubulin and histones H3/H4; details: 48 h; 19i 1 or 2 μM, SAHA 2.5 μM
Protocol: Total protein extraction, purification of histones, and Western blot analysis were performed as previously described. Briefly, cells were incubated for 30 min on ice in RIPA-buffer (150 mM NaCl, 1% Triton X-100, 0.5% desoxycholate, 1% Nonidet P-40, 0.1% SDS, 1 mM EDTA, 50 mM TRIS (pH 7.6)) containing 10 μl/ml protease inhibitor cocktail (#P-8340, Sigma Aldrich, St. Louis, MO). Histones were extracted for detection of histone H3 and H4 acetylation by a modified published protocol employing sulfuric acid extraction and TCA-precipitation. Concentrations of total protein and histones were determined by BCA protein assay (Thermo Fisher Scientific, Carlsbad, CA). Subsequently, total cell proteins (15 μg) or extracted histones (2 μg) were separated by SDS-PAGE (total proteins 10–12% gels, histones 15% gels), transferred to PVDF membranes (Merck Millipore, Berlin, Germany), and were incubated with primary antibodies (at RT for 1 h or 4 °C overnight, see Additional file 3: Table S2) following blocking with 5% non-fat milk or BSA (bovine serum albumin) in TBST (150 mM NaCl, 10 mM TRIS, pH 7.4 and 0.1% Tween-20). For signal detection, membranes were incubated with a suitable horseradish peroxidase-conjugated secondary antibody (see Additional file 2: Table S1) at RT for 1 h and signals were visualized by SuperSignal™ West Femto (Thermo Fisher Scientific, Carlsbad, CA) and WesternBright Quantum kit (Biozym, Hessisch Oldendorf, Germany).

SMILES | CC50 (VM-CUB1 [1]) [µM] | CC50 (639-V [2]) [µM] | CC50 (HBLAK [3]) [µM] | CC50 (UM-UC-3 [4]) [µM] | concentrations effective on / impeding proliferation of UC cell lines [5] [µM] | CC50 (VM-CUB1 [6]; VM-CUB1, MTT, 72 h of incubation) [µM] | CC50 (VM-CUB1 [6]; VMCub1, MTT, 24 h) [µM] | CC50 (VM-CUB1 [6]; VMCub1, MTT, 48 h) [µM] | CC50 (639-V [7]; 24 h) [µM] | CC50 (639-V [7]; 48 h) [µM] | CC50 (639-V [7]; 72 h of incubation) [µM] | CC50 (HBLAK [8]) [µM] | CC50 (UM-UC-3 [9]; 24 h) [µM] | CC50 (UM-UC-3 [9]; 48 h) [µM] | CC50 (UM-UC-3 [9]; 72 h of incubation) [µM] | acetylation of α-tubulin (UCCs)
O=C(NCC1(c2nc(-c3ccccc3)cs2)CCOCC1)c1cccc(-c2noc(C(F)(F)F)n2)c1 [TMP269] | 20.1 | 16.5 | 10.6 | 14.6 | > 10 | 45.9 | 115 | 115 | 96.1 | 65.8 | 39.4 | 48.7 | 110 | 73.8 | 32.3 | –
O=C(CCCCCCC(=O)Nc1ccccc1)NO [SAHA, suberoylanilide hydroxamic acid, reference compound] | – | – | – | – | – | – | – | – | – | – | – | – | – | – | – | strongly induced
